# In ChEMBL document CHEMBL5365532, “Discovery of Triazinone Derivatives as Novel, Specific, and Direct NLRP3 Inflammasome Inhibitors for the Treatment of DSS-Induced Ulcerative Colitis” (J Med Chem, 2023):
# Calls of active or inactive are those of the source. The rule behind the calls is not given here.
# Experiments:
# [1] = molecular target: NACHT, LRR and PYD domains-containing protein 3 (Mus musculus) (UniProt Q8R4B8); experiment: Inhibition of NLRP3 inflammasome in C57BL/6 mouse BMDM cells assessed as inhibition of LPS/MSU-induced IL-1 beta secretion at 0.2 to 0.8 uM pretreated with LPS for 3 hrs followed by incubation with compound for 40 mins and later stimulated with MSU for 12 hrs by ELISA; type: cell-based; conditions: dose 0.2-0.8 µM, time 760.0 min
# [2] = Half life in BALB/c mouse at 10 mg/kg, po; type: ADME, organism-based; conditions: in vivo
# THP-1 [3] = experiment: Effect on mitochondrial ROS production in PMA-differentiated human THP-1 cells at 0.2 to 45 uM pretreated with LPS for 3 hrs followed by incubation with compound for 40 mins and later stimulated with nigericin for 35 mins by MitoSOX staining based immunofluorescence analysis; type: functional, cell-based; conditions: dose 0.2-45 µM, time 75.0 min
# [4] = molecular target: NLR family CARD domain-containing protein 4 (Mus musculus) (UniProt Q3UP24); experiment: Inhibition of NLRC4 inflammasome in C57BL/6 mouse BMDM cells assessed as inhibition of LPS/flagellin-induced IL-1 beta secretion at 0.2 to 0.8 uM pretreated with LPS for 3 hrs followed by incubation with compound for 40 mins and later stimulated with flagellin for 6 hrs by ELISA; type: cell-based; conditions: dose 0.2-0.8 µM, time 400.0 min
# [5] = Cmax in BALB/c mouse at 10 mg/kg, iv; type: ADME, organism-based; set-up: dose 10 mg/kg, route iv; conditions: in vivo
# Mus musculus [6] = experiment: Antiinflammatory activity against DSS-induced ulcerative colitis C57BL/6 mouse model assessed as decrease in NLRP3 protein expression in colon at 30 mg/kg, ip fed with DSS for 6 days followed by administration with compound for 5 days and measured on day 11 by western blot analysis; type: functional, organism-based; conditions: time 5.0 day
# THP-1 [7] = experiment: Inhibition of Cl- efflux in PMA-differentiated human THP-1 cells at 0.8 to 45 uM pretreated with LPS for 3 hrs followed by incubation with compound for 40 mins and later stimulated with nigericin for 35 mins; type: functional, cell-based; conditions: dose 0.8-45 µM, time 75.0 min
# [8] = molecular target: NACHT, LRR and PYD domains-containing protein 3 (Mus musculus) (UniProt Q8R4B8); experiment: Inhibition of NLRP3 inflammasome in C57BL/6 mouse BMDM cells assessed as inhibition of LPS/alum-induced IL-1 beta secretion at 0.2 to 0.8 uM pretreated with LPS for 3 hrs followed by incubation with compound for 40 mins and later stimulated with alum for 4 hrs by ELISA; type: cell-based; conditions: dose 0.2-0.8 µM, time 280.0 min
# [9] = molecular target: NACHT, LRR and PYD domains-containing protein 3 (Mus musculus) (UniProt Q8R4B8); experiment: Inhibition of NLRP3 inflammasome in C57BL/6 mouse BMDM cells assessed as inhibition of IL-1 beta secretion at 0.2 to 0.8 uM pretreated with Pam3CSK4 for 3 hrs followed by incubation with compound for 40 mins and later stimulated with cytosolic LPS for 16 hrs by ELISA; type: cell-based; conditions: dose 0.2-0.8 µM, time 1000.0 min
# [10] = Cmax in BALB/c mouse at 10 mg/kg, po; type: ADME, organism-based; set-up: dose 10 mg/kg, route po; conditions: in vivo
# [11] = Apparent clearance in BALB/c mouse at 10 mg/kg, po; type: ADME, organism-based; conditions: in vivo
# [12] = Tmax in BALB/c mouse at 10 mg/kg, po; type: ADME, organism-based; conditions: in vivo
# [13] = Metabolic stability in human liver microsomes; type: ADME, Microsome
# [14] = molecular target: NACHT, LRR and PYD domains-containing protein 3 (Mus musculus) (UniProt Q8R4B8); experiment: Inhibition of NLRP3 inflammasome in C57BL/6 mouse BMDM cells assessed as inhibition of LPS/ATP-induced IL-1 beta secretion at 0.2 to 0.8 uM pretreated with LPS for 3 hrs followed by incubation with compound for 40 mins and later stimulated with ATP for 1 hr by ELISA; type: cell-based; conditions: dose 0.2-0.8 µM, time 100.0 min
# [15] = molecular target: T1, Interferon-inducible protein AIM2 (Mus musculus) (UniProt Q91VJ1); experiment: Inhibition of AIM2 inflammasome in C57BL/6 mouse BMDM cells assessed as inhibition of LPS/poly(dA:dT)-induced IL-1 beta secretion at 0.2 to 0.8 uM pretreated with LPS for 3 hrs followed by incubation with compound for 40 mins and later stimulated with poly(dA:dT) for 6 hrs by ELISA; type: cell-based; conditions: dose 0.2-0.8 µM, time 400.0 min
# T1 sequence (whole entry): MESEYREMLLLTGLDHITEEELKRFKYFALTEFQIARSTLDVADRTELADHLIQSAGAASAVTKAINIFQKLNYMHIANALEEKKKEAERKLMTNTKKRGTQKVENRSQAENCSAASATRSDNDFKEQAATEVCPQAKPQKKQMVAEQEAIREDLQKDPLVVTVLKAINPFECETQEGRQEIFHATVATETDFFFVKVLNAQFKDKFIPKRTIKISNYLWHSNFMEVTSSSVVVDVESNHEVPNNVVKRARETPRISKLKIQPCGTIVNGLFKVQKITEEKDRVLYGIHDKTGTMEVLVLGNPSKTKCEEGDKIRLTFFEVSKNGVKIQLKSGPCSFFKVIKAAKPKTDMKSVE
# [16] = MRT (0 to t) in BALB/c mouse at 10 mg/kg, iv; type: ADME, organism-based; conditions: in vivo
# [17] = Half life in BALB/c mouse at 10 mg/kg, iv; type: ADME, organism-based; conditions: in vivo
# [18] = Oral bioavailability in BALB/c mouse at 10 mg/kg; type: ADME, organism-based; conditions: in vivo
# [19] = AUC (0 to t) in BALB/c mouse at 10 mg/kg, iv; type: ADME, organism-based; set-up: dose 10 mg/kg, route iv; conditions: in vivo
# THP-1 [20] = experiment: Inhibition of K+ efflux in PMA-differentiated human THP-1 cells at 0.8 to 45 uM pretreated with LPS for 3 hrs followed by incubation with compound for 40 mins and later stimulated with nigericin for 35 mins; type: functional, cell-based; conditions: dose 0.8-45 µM, time 75.0 min
# [21] = AUC (0 to t) in BALB/c mouse at 10 mg/kg, po; type: ADME, organism-based; set-up: dose 10 mg/kg, route po; conditions: in vivo
# Mus musculus [22] = experiment: Antiinflammatory activity against DSS-induced ulcerative colitis C57BL/6 mouse model assessed as decrease in colon length shortening at 10 to 30 mg/kg, ip fed with DSS for 6 days followed by administration with compound for 5 days and measured on day 11; type: functional, organism-based; conditions: dose 10-30 mg/kg, time 5.0 day
# Mus musculus [23] = experiment: Antiinflammatory activity against DSS-induced ulcerative colitis C57BL/6 mouse model assessed as decrease in body weight loss at 10 to 30 mg/kg, ip fed with DSS for 6 days followed by administration with compound for 5 days; type: functional, organism-based; conditions: dose 10-30 mg/kg, time 5.0 day
# [24] = molecular target: NACHT, LRR and PYD domains-containing protein 3 (Mus musculus, UniProt Q8R4B8); experiment: Inhibition of NLRP3 inflammasome in C57BL/6 mouse BMDM cells assessed as inhibition of LPS/nigericin-induced IL-1 beta secretion pretreated with LPS for 3 hrs followed by incubation with compound for 40 mins and later stimulated with nigericin for 35 mins by ELISA; type: cell-based
# THP-1 [25] = experiment: Effect on NLRP3 protein expression in PMA-differentiated human THP-1 cells at 0.2 to 0.8 uM pretreated with LPS for 3 hrs followed by incubation with compound for 40 mins and later stimulated with nigericin for 35 mins by western blot analysis; type: functional, cell-based; conditions: dose 0.2-0.8 µM, time 75.0 min
# THP-1 [26] = experiment: Cytotoxicity against PMA-differentiated human THP-1 cells assessed as cell viability at 0.16 to 20 uM incubated for 24 hrs by CCK8 assay; type: toxicity, cell-based; conditions: thp-1, 24 h, dose 0.16-20 µM
# THP-1 [27] = experiment: Effect on NLRP3 protein expression in PMA-differentiated human THP-1 cells at 0.2 to 0.8 uM pretreated with compound for 40 mins followed by LPS challenge for 3 hrs by western blot analysis; type: functional, cell-based; conditions: dose 0.2-0.8 µM, time 220.0 min
# Sequence of NACHT, LRR and PYD domains-containing protein 3 (Mus musculus) (Q8R4B8 whole entry, the tested form may be a part): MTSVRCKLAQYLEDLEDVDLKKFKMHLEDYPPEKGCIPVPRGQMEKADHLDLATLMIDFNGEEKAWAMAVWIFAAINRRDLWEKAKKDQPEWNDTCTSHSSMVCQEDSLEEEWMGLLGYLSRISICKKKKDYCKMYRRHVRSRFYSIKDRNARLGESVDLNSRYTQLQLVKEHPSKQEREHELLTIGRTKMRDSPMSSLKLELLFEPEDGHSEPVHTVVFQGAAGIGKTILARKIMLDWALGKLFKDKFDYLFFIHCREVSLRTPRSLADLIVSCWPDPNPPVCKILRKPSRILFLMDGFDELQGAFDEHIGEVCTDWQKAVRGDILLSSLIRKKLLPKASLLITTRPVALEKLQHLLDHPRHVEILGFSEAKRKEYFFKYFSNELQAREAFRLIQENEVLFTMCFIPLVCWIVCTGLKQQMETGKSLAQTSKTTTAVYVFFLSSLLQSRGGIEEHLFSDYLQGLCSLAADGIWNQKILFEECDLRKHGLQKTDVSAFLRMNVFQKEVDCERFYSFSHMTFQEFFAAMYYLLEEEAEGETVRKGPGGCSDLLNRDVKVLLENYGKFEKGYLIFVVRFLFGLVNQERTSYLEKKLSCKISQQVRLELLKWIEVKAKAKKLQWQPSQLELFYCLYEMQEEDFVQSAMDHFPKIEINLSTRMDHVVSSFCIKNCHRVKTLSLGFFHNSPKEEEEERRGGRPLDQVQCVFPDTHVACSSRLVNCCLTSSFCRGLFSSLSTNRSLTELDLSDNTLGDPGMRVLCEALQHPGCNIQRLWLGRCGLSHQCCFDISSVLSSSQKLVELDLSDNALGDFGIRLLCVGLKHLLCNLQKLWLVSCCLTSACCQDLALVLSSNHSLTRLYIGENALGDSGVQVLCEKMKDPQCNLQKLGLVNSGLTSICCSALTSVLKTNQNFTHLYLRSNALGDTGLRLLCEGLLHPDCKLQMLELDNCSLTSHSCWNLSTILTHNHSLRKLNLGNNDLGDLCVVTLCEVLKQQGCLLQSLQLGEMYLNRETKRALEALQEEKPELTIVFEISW
# Sequence of NLR family CARD domain-containing protein 4 (Mus musculus) (Q3UP24 whole entry, the tested form may be a part): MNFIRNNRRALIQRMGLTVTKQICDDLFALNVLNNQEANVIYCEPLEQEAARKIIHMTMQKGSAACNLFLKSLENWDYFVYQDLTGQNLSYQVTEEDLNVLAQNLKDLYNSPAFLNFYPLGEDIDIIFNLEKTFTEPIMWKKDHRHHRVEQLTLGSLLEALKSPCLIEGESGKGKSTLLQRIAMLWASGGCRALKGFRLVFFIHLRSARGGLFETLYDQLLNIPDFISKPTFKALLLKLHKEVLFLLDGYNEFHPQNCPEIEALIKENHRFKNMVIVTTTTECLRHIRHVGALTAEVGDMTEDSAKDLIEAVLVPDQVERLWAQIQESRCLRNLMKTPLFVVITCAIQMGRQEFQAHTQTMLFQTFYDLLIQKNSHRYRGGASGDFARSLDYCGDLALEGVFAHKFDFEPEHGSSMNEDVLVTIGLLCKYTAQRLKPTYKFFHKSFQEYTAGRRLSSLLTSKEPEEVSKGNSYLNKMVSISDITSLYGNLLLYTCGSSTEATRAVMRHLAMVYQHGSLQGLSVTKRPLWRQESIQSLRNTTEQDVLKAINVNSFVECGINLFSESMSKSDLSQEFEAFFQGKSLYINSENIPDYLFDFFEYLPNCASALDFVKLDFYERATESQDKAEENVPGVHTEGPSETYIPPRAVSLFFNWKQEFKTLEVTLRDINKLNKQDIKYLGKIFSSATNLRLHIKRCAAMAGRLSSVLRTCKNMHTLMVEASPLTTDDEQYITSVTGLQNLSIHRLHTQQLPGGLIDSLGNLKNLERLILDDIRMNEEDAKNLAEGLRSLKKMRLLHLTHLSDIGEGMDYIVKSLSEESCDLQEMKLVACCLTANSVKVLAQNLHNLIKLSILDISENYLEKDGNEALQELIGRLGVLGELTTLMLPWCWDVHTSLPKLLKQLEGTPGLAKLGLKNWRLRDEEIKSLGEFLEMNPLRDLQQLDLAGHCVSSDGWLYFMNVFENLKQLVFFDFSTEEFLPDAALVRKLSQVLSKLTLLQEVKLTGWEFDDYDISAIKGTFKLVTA
# Sequence of NACHT, LRR and PYD domains-containing protein 3 (Q8R4B8 whole entry, the tested form may be a part): as the sequence (Q8R4B8 whole entry, the tested form may be a part) above
smiles,measurement,setting,value
CC(C)c1nn(Cc2nnc(-c3ccc(C(F)(F)F)nc3Cl)o2)c(=O)c2cc3sc(Cl)cc3n12,inhibition,[1],Active
same,half-life,[2],1.31 h
same,Activity,THP-1 [3],inactive
same,inhibition,[4],inactive
same,Cmax,[5],3890 ng/mL
same,Activity,Mus musculus [6],Active
same,inhibition,THP-1 [7],inactive
same,inhibition,[8],Active
same,inhibition,[9],Active
same,Cmax,[10],437 ng/mL
same,CL/F,[11],144 mL/min/kg
same,Tmax,[12],1 h
same,half-life,[13],0.525 h
same,inhibition,[14],Active
same,inhibition,[15],inactive
same,MRT last,[16],1.54 h
same,half-life,[17],2.06 h
same,bioavailability,[18],22.5%
same,AUC(0-t),[19],5210 ng·h/mL
same,inhibition,THP-1 [20],inactive
same,AUC(0-t),[21],1170 ng·h/mL
same,Activity,Mus musculus [22],Active
same,Activity,Mus musculus [23],Active
same,IC50,[24],380 nM
same,Activity,THP-1 [25],inactive
same,Activity,THP-1 [26],Non-Toxic
same,Activity,THP-1 [27],inactive
